One may read the Kd as the equilibrium constant for the complex coming apart. A lower Kd goes with higher affinity.

For experiment [1] the following is noted: glycine prodrug; cited from earlier work.
Experiment [2] addresses T1, NMDA receptor-associated glycine recognition site (Glycine B receptor) (Rattus norvegicus, UniProt P35439).
T1 construct: synaptic plasma membranes (SPM) prepared from rat forebrain; tissue Sasco, St. Charles, Mo; (animals); host or cells: forebrain synaptic plasma membranes of 30-45 day old male Sprague-Dawley rats, Triton X-100 washed
In words: TCP modulation assay (stimulation of [3H]TCP binding). Particulars: in the presence of 0.6 μM glycine; basal binding 2583 ±381 DPM. The experiment is classed as biochemical. The protocol: (§1) [^3 H]TCP binding was performed using Triton X-100 washed synaptic plasma membranes (SPM) prepared from rat forebrain (30-45 day old, male Sprague-Dawley; Sasco, St. Charles, Mo.) as described previously [J. W. Thomas, W. F. Hood, J. B. Monahan, P. C. Contreras and T. L. O'Donohue, Brain Res., 442, 396-398 (1988)]. […] The samples were then filtered though glass fiber filters (Schleicher and Schuell #32) which were pretreated with 0.05% (v/v) polyethylenimine. The filters were washed and the radioactivity quantitated by liquid scintillation spectrometry. […] The EC50 values for the stimulation of [^3 H]TCP binding were determined using a four parameter logistic regression analysis.

The next experiment has as its system Male Long-Evans rats. Put plainly: Passive avoidance assay. As to conditions: for Latency in Seconds in Passive Avoidance: saline 11.9; for Latency to enter box 24 hours after shock: n = 6. The experiment is classed as in vivo, rat. An excerpt:
Subjects: Male Long-Evans rats weighing about 200 g (Sasco) were used. They were housed two per cage with ad lib food and water for the duration of the experiment.
Apparatus: The apparatus consisted of a plexiglass box (32×26×20 cm) with a lid with a floor of metal rods spaced 1.8 cm apart. The box was divided into two chambers, one painted black and the other gray. Two doors (12 cm high) were cut into the front of the box allowing access into each chamber.
A Y-shaped plexiglas runway was attached to the front of the box. The stem of the Y was 16 cm long and unpainted. The arms of the Y (14 cm long each) led to the two doors and each was painted the color of the chamber to which it led. The stem of the Y extended over the edge of the table on which the apparatus was placed, so that it was approximately 75 cm above the floor. The metal floor of the box was wired to a Lafayette shock generator so that a 0.5 mAmp shock could be delivered.
Procedure: On the first rest day, each rat was placed on the runway and allowed to enter one of the chambers. The door to this chamber was then closed, and the rat was then allowed to enter the other chamber. […] Sixty minutes later, each rat was again allowed to enter one chamber, where it received a footshock for 2 seconds. […] On the third test day, the rat is again placed on the runway and allowed to enter a chamber. On days two and three, each rat's latency to enter a chamber, and which chamber it entered, are recorded.

The target of experiment [3] is PCP site of the NMDA-PCP receptor complex. Put plainly: [3H]TCP binding to synaptic plasma membranes under basal conditions. On the set-up: species or system rat. The method, then:
as §1

The test system of another experiment is Rats. In words: Rewarded alternation of rats in a T-maze. The experiment is classed as in vivo, rat. Particulars: 3 mg/kg i.p. An excerpt: Both groups learned the task in about 20 trials. Learning is defined as making 9 correct out of 10 consecutive choices. On the following day, the food reward was placed in the other arm of the maze (reversal).

`CCCCCNCC(N)=O` [milacemide]: the “Increase of whole brain content of glycine” value in experiment [1] is given as 30%.
For the compound `NCC(=O)O` [Glycine], in experiment [2], the “Maximum specific [3H]TCP binding” value is listed as 4712±779 DPM.
For the compound `C[C@@H](N)C(=O)O` [D-alanine], the “Latency in Seconds in Passive Avoidance” value with Male Long-Evans rats (534 mg/kg I.G.) was determined as 10.9 s.
Regarding `c1csc(C2(N3CCCCC3)CCCCC2)c1` [[^3 H]TCP], in experiment [3], the Kd was 44 nM.
Regarding `N[C@@H]1CONC1=O` [D-cycloserine, 4-amino-3-isoxazolidone], the “Trials to learn the reversal” value with Rats (following day, saline about 32 trials) is given as “about 20 trials”. Further, the “Trials to learn place learning task (9 correct out of 10 consecutive choices)” value in the experiment on Rats (initial task) is on record as “about 20 trials”. Besides, the “% of Saline Control Latency in Passive Avoidance” value in the experiment with Male Long-Evans rats (0.3 mg/kg i.p., post-shock) came to 160%; in the experiment with Male Long-Evans rats (0.3 mg/kg i.p., pre-retrieval), 105%; with Male Long-Evans rats (0.3 mg/kg i.p., pre-shock) it was 152%; with Male Long-Evans rats (3 mg/kg i.p., post-shock), 215%; in the experiment with Male Long-Evans rats (3 mg/kg i.p., pre-retrieval), 153%; in the experiment with Male Long-Evans rats (3 mg/kg i.p., pre-shock) it was 245%. For the same compound, the “% of Saline Control Latency in Passive Avoidance” value was determined as 153% with Male Long-Evans rats (10 mg/kg i.p., post-shock); 180% with Male Long-Evans rats (10 mg/kg i.p., pre-retrieval); 138% with Male Long-Evans rats (10 mg/kg i.p., pre-shock); 100% in the experiment on Male Long-Evans rats (20 mg/kg i.p., pre-retrieval). Besides, the “Latency to enter box 24 hours after shock” value is 22.8 ± 2.4 s in the experiment with Male Long-Evans rats (10 mg/kg i.p., drug after shock) and 16.6 ± 3.0 s in the experiment on Male Long-Evans rats (10 mg/kg i.p., drug before shock). Moreover, the “Latency in Seconds in Passive Avoidance” value in the experiment with Male Long-Evans rats (60 mg/kg I.G.) is 17.3 s.
